In patent publication US9512107B2, “Therapeutically active compositions and their methods of use” (Agios Pharmaceuticals, Inc., priority 2012, dated 2016):
Residue numbers refer to the chain shown, from its start.

Columns and labels:
[1] = tested on: U87MG pLVX-IDH2 R140Q-neo cells; assay: U87MG pLVX-IDH2 R140Q-neo cell based assay, 2-HG in media by LC-MS at 48 hours; conditions: Homo sapiens, U-87 MG
In short: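 U87MG cells stably expressing IDH2 R140Q were seeded overnight, then exposed to compound at 0.2% final DMSO at 37 °C, 5% CO2. 2-HG in the medium was quantified by LC-MS at 48 h. Growth inhibition was read by CellTiter-Glo luminescence at 72 h.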

IDH2 R172K = biological target: T1, IDH2 R172K (Homo sapiens, UniProt P48735, R172K); assay: IDH2 R172K enzymatic assay (NADPH cofactor depletion, diaphorase/resazurin readout); format: biochemical; conditions: read-out: Enz R172K
T1 sequence (P48735 40-452 R172K): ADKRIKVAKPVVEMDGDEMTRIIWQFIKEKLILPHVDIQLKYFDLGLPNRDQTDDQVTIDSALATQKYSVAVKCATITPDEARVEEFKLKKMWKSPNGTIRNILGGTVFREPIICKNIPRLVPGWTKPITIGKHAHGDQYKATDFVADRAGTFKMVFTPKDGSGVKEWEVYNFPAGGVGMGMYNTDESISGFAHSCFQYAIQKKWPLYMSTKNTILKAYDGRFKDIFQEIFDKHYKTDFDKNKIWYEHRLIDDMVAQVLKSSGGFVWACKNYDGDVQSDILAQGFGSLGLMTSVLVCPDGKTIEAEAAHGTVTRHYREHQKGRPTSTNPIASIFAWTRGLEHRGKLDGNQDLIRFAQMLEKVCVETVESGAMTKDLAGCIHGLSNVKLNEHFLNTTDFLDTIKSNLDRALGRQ
Protocol: Compounds are assayed for IDH2 R172K inhibitory activity through a cofactor depletion assay. […] The reaction is terminated by the addition of a second enzyme, diaphorase, and a corresponding substrate, resazurin. Diaphorase reduces resazurin to the highly fluorescent resorufin with the concomitant oxidation of NADPH to NADP, both halting the IDH2 reaction by depleting the available cofactor pool and facilitating quantitation of the amount of cofactor remaining after a specific time period through quantitative production of an easily detected fluorophore.
The test compound is then incubated for one hour at room temperature with the enzyme; before starting the IDH2 reaction with the addition of 10 μl of substrate mix containing 50 μM NADPH and 6.3 mM α-KG in the buffer described above. After a further one hour of incubation at room temperature, the reaction is halted and the remaining NADPH measured through conversion of resazurin to resorufin by the addition of 25 μl Stop Mix (36 μg/ml diaphorase enzyme and 60 μM resazurin; in buffer).

IDH2 R140Q = biological target: T2, IDH2 R140Q (Homo sapiens, UniProt P48735, R140Q); assay: IDH2 R140Q enzymatic assay (cofactor depletion, similar format); format: biochemical; conditions: read-out: Enz R140Q
T2 sequence (P48735 40-452 R140Q): T1 sequence (P48735 40-452 R172K) with R101Q, K133R

CC(C)COC(=O)Nc1nc(Nc2ccccc2)nc(-c2ccccc2)n1 [Compound 179, Isobutyl 4-phenyl-6-(phenyl-amino)-1,3,5-triazin-2-ylcarbamate]
IC50 [1]: < 100 nM | IC50 (IDH2 R172K): < 100 nM | IC50 (IDH2 R140Q): < 100 nM

CCOC(=O)Nc1nc(Nc2ccccc2)nc(-c2ccccc2)n1 [Compound 181, ethyl 4-phenyl-6-(phenylamino)-1,3,5-triazin-2-ylcarbamate]
IC50 [1]: < 100 nM | IC50 (IDH2 R172K): 100 to 1000 nM | IC50 (IDH2 R140Q): < 100 nM

CC(C)(C)C(=O)Nc1nc(Nc2ccccc2)nc(-c2ccccc2)n1 [Compound 183, N-(4-phenyl-6-(phenylamino)-1,3,5-triazin-2-yl)pivalamide]
IC50 [1]: < 100 nM | IC50 (IDH2 R172K): 100 to 1000 nM | IC50 (IDH2 R140Q): < 100 nM

CC(C)Nc1nc(Nc2ccncc2)nc(-c2cccc(F)c2)n1 [Compound 184, 6-(3-fluorophenyl)-N^2-isopropyl-N^4-(pyridin-4-yl)-1,3,5-triazine-2,4-diamine]
IC50 [1]: 100 to 1000 nM | IC50 (IDH2 R172K): 1000 to 10000 nM | IC50 (IDH2 R140Q): < 100 nM

CC(C)Nc1nc(Nc2ccncc2)nc(-c2cccc(Cl)c2)n1 [Compound 185, 6-(3-chlorophenyl)-N^2-isopropyl-N^4-(pyridin-4-yl)-1,3,5-triazine-2,4-diamine]
IC50 [1]: 100 to 1000 nM | IC50 (IDH2 R172K): 100 to 1000 nM | IC50 (IDH2 R140Q): < 100 nM

CCC(C)Nc1nc(Nc2ccncc2)nc(-c2ccccc2)n1 (stereo not drawn) [Compound 186, N^2-sec-butyl-6-phenyl-N^4-(pyridin-4-yl)-1,3,5-triazine-2,4-diamine]
IC50 [1]: < 100 nM | IC50 (IDH2 R172K): 100 to 1000 nM | IC50 (IDH2 R140Q): < 100 nM

c1ccc(-c2nc(Nc3ccncc3)nc(NC3CCCC3)n2)cc1 [Compound 187]
IC50 [1]: < 100 nM | IC50 (IDH2 R172K): 100 to 1000 nM | IC50 (IDH2 R140Q): < 100 nM

c1ccc(-c2nc(Nc3ccncc3)nc(NC3CCC3)n2)cc1 [Compound 188, N^2-cyclobutyl-6-phenyl-N^4-(pyridin-4-yl)-1,3,5-triazine-2,4-diamine]
IC50 [1]: < 100 nM | IC50 (IDH2 R172K): 100 to 1000 nM | IC50 (IDH2 R140Q): < 100 nM

CC(C)(C)Nc1nc(Nc2ccncc2)nc(-c2ccccc2)n1 [Compound 189, N^2-tert-butyl-6-phenyl-N^4-(pyridin-4-yl)-1,3,5-triazine-2,4-diamine]
IC50 [1]: 100 to 1000 nM | IC50 (IDH2 R172K): 1000 to 10000 nM | IC50 (IDH2 R140Q): < 100 nM

CC(C)CNc1nc(Nc2ccncc2)nc(-c2ccccc2)n1 [Compound 190, N^2-isobutyl-6-phenyl-N^4-(pyridin-4-yl)-1,3,5-triazine-2,4-diamine]
IC50 [1]: < 100 nM | IC50 (IDH2 R172K): 100 to 1000 nM | IC50 (IDH2 R140Q): < 100 nM

CC(C)(C)CNc1nc(Nc2ccncc2)nc(-c2ccccc2)n1 [Compound 191, N^2-neopentyl-6-phenyl-N^4-(pyridin-4-yl)-1,3,5-triazine-2,4-diamine]
IC50 [1]: < 100 nM | IC50 (IDH2 R172K): 100 to 1000 nM | IC50 (IDH2 R140Q): < 100 nM

CC(C)Nc1nc(Nc2cncc(F)c2)nc(-c2ccccc2)n1 [Compound 193, N^2-(5-fluoropyridin-3-yl)-N^4-isopropyl-6-phenyl-1,3,5-triazine-2,4-diamine]
IC50 [1]: < 100 nM | IC50 (IDH2 R172K): 100 to 1000 nM | IC50 (IDH2 R140Q): < 100 nM

CC(C)Nc1nc(Nc2cncc(Cl)c2)nc(-c2ccccc2)n1 [Compound 194, N^2-(5-chloropyridin-3-yl)-N^4-isopropyl-6-phenyl-1,3,5-triazine-2,4-diamine]
IC50 [1]: < 100 nM | IC50 (IDH2 R172K): < 100 nM | IC50 (IDH2 R140Q): < 100 nM

COCc1cccc(Nc2nc(NC(C)C)nc(-c3ccccc3)n2)c1 [Compound 195, N^2-isopropyl-N^4-(3-(methoxymethyl)phenyl)-6-phenyl-1,3,5-triazine-2,4-diamine]
IC50 [1]: < 100 nM | IC50 (IDH2 R172K): 100 to 1000 nM | IC50 (IDH2 R140Q): < 100 nM

CC(C)Nc1nc(Nc2ccc(F)nc2)nc(-c2ccccc2)n1 [Compound 196, N^2-(6-fluoropyridin-3-yl)-N^4-isopropyl-6-phenyl-1,3,5-triazine-2,4-diamine]
IC50 [1]: < 100 nM | IC50 (IDH2 R172K): 100 to 1000 nM | IC50 (IDH2 R140Q): < 100 nM

CC(C)Nc1nc(Nc2ccnc(C#N)c2)nc(-c2ccccc2)n1 [Compound 197, 4-(4-(isopropylamino)-6-phenyl-1,3,5-triazin-2-ylamino)picolinonitrile]
IC50 [1]: < 100 nM | IC50 (IDH2 R172K): 100 to 1000 nM | IC50 (IDH2 R140Q): < 100 nM

CC(C)Nc1nc(Nc2cccc(CC#N)c2)nc(-c2ccccc2)n1 [Compound 198, 2-(3-(4-(isopropylamino)-6-phenyl-1,3,5-triazin-2-ylamino)phenyl)acetonitrile]
IC50 [1]: < 100 nM | IC50 (IDH2 R172K): 100 to 1000 nM | IC50 (IDH2 R140Q): < 100 nM

CC(C)Nc1nc(Nc2ccnc(Cl)c2)nc(-c2ccccc2)n1 [Compound 199, N^2-(2-chloropyridin-4-yl)-N^4-isopropyl-6-phenyl-1,3,5-triazine-2,4-diamine]
IC50 [1]: < 100 nM | IC50 (IDH2 R172K): < 100 nM | IC50 (IDH2 R140Q): < 100 nM

CCOc1cc(Nc2nc(NC(C)C)nc(-c3ccccc3)n2)ccn1 [Compound 200, N^2-(2-ethoxypyridin-4-yl)-N^4-isopropyl-6-phenyl-1,3,5-triazine-2,4-diamine]
IC50 [1]: < 100 nM | IC50 (IDH2 R172K): 100 to 1000 nM | IC50 (IDH2 R140Q): < 100 nM

CC(C)Nc1nc(Nc2cccc(C(C)(C)O)c2)nc(-c2ccccc2)n1 [Compound 201, 2-(3-(4-(isopropylamino)-6-phenyl-1,3,5-triazin-2-ylamino)phenyl)propan-2-ol]
IC50 [1]: 100 to 1000 nM | IC50 (IDH2 R172K): 1000 to 10000 nM | IC50 (IDH2 R140Q): < 100 nM

CC(C)Nc1nc(Nc2ccnc(C(F)(F)F)c2)nc(-c2ccccc2)n1 [Compound 202, N^2-isopropyl-6-phenyl-N^4-(2-(trifluoromethyl)pyridin-4-yl)-1,3,5-triazine-2,4-diamine]
IC50 [1]: < 100 nM | IC50 (IDH2 R172K): < 100 nM | IC50 (IDH2 R140Q): < 100 nM

CC(C)(O)CNc1nc(Nc2ccccc2)nc(-c2ccccc2)n1 [Compound 203, 2-methyl-1-(4-phenyl-6-phenylamino-[1,3,5]triazin-2-yl-amino)-propan-2-ol]
IC50 [1]: 100 to 1000 nM | IC50 (IDH2 R172K): 1000 to 10000 nM | IC50 (IDH2 R140Q): < 100 nM

CCNS(=O)(=O)c1cccc(Nc2nc(NC(C)C)nc(-c3ccccc3)n2)c1 [Compound 204, N-ethyl-3-(4-(isopropylamino)-6-phenyl-1,3,5-triazin-2-ylamino)benzenesulfonamide]
IC50 [1]: 100 to 1000 nM | IC50 (IDH2 R172K): 1000 to 10000 nM | IC50 (IDH2 R140Q): < 100 nM

CCS(=O)(=O)c1cccc(Nc2nc(NC(C)C)nc(-c3ccccc3)n2)c1 [Compound 205, N^2-(3-(ethylsulfonyl)phenyl)-N^4-isopropyl-6-phenyl-1,3,5-triazine-2,4-diamine]
IC50 [1]: < 100 nM | IC50 (IDH2 R172K): 100 to 1000 nM | IC50 (IDH2 R140Q): < 100 nM

CC(C)Nc1nc(Nc2cccc(S(=O)(=O)C(C)C)c2)nc(-c2ccccc2)n1 [Compound 206, N^2-isopropyl-N^4-(3-(isopropylsulfonyl)phenyl)-6-phenyl-1,3,5-triazine-2,4-diamine]
IC50 [1]: 100 to 1000 nM | IC50 (IDH2 R172K): 100 to 1000 nM | IC50 (IDH2 R140Q): < 100 nM

CC(C)(C)COC(=O)Nc1nc(Nc2ccccc2)nc(-c2ccccc2)n1 [Compound 208, Neopentyl 4-phenyl-6-(phenylamino)-1,3,5-triazin-2-ylcarbamate]
IC50 [1]: 100 to 1000 nM | IC50 (IDH2 R172K): 100 to 1000 nM | IC50 (IDH2 R140Q): < 100 nM

CCC(=O)Nc1nc(Nc2ccccc2)nc(-c2ccccc2)n1 [Compound 209, N-(4-phenyl-6-(phenylamino)-1,3,5-triazin-2-yl)propionamide]
IC50 [1]: 100 to 1000 nM | IC50 (IDH2 R172K): 100 to 1000 nM | IC50 (IDH2 R140Q): < 100 nM
